This passage reports IC50 results from ChEMBL document CHEMBL1142813, “Synthesis of tripeptides as potent Yersinia protein tyrosine phosphatase inhibitors” (Bioorg Med Chem Lett, 2005).

In experiment [1] the target is Secreted effector protein (Yersinia pestis, UniProt O68720). The experiment is described as follows: Inhibitory concentration against Yersinia pestis YopH expressed in Escherichia coli BL21 cells.
The target of experiment [2] is T1, Tyrosine-protein phosphatase non-receptor type 1 (Homo sapiens, UniProt P18031).
T1 sequence (P18031 whole entry): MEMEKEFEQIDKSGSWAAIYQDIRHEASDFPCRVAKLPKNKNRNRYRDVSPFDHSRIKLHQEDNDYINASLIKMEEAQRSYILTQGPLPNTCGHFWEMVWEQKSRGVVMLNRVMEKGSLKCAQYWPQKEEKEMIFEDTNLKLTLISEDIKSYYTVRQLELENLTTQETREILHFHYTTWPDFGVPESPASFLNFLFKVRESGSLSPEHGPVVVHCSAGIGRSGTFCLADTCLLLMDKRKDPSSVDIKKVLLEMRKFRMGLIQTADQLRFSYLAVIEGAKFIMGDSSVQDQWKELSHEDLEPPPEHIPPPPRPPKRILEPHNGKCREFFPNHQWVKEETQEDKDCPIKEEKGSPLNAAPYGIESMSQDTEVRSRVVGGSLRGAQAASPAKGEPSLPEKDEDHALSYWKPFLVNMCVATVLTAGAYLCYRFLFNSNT
The experiment is described as follows: Inhibitory concentration against human PTP1B expressed in Escherichia coli BL21 cells.

The structures appear in SMILES notation.

Chain of Secreted effector protein (O68720 whole entry): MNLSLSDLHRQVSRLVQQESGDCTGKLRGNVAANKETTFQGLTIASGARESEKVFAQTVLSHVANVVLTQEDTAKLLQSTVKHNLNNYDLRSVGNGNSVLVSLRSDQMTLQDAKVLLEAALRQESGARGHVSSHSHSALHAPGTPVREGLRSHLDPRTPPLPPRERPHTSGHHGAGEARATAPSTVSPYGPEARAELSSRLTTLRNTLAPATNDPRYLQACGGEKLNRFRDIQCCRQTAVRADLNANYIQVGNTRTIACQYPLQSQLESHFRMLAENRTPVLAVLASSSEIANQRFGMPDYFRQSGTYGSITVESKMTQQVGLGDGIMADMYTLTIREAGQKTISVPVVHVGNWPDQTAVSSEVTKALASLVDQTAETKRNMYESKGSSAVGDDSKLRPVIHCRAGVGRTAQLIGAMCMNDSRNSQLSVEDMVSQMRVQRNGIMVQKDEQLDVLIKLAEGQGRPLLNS

Turning to `CC(C)C[C@H](CC(=O)[C@H](Cc1ccc(OCC(=O)O)cc1)NC(=O)[C@H](CCC(=O)OCc1ccccc1)NS(=O)(=O)CCc1cccc2ccccc12)C(N)=O`, the results for the IC50 in experiment [1] and in experiment [2] were 22 µM and 24 µM, respectively.

For `CC(C)C[C@H](CC(=O)[C@H](Cc1ccc(OCC(=O)O)cc1)NC(=O)[C@H](CCC(=O)OCc1ccccc1)NC(=O)COc1ccc2ccccc2c1)C(N)=O`, the values for the IC50 in experiment [1] and in experiment [2] were 30 µM and 23 µM, respectively.

For `CC(C)C[C@H](CC(=O)[C@H](Cc1ccc(OCC(=O)O)cc1)NC(=O)[C@H](CNC(=O)OCc1ccccc1)NC(=O)OCC1c2ccccc2-c2ccccc21)C(N)=O`, the IC50 worked out at 2.1 µM in experiment [1] and 4.3 µM in experiment [2].

Take `Cc1ccc2c(c1)CCN2CCC(=O)N[C@@H](CCC(=O)OCc1ccccc1)C(=O)N[C@@H](Cc1ccc(OCC(=O)O)cc1)C(=O)C[C@@H](CC(C)C)C(N)=O`: the IC50 in experiment [1] came to 5.6 µM; in experiment [2], 4.3 µM.

In the case of `CC(C)C[C@H](CC(=O)[C@H](Cc1ccc(OCC(=O)O)cc1)NC(=O)[C@H](CCC(=O)OCc1ccccc1)NC(=O)CCc1c[nH]c2ccccc12)C(N)=O`, the IC50 in experiment [1] and in experiment [2] was over 100 µM in each case.

For `CC(C)C[C@H](CC(=O)[C@H](Cc1ccc(C(F)(F)C(=O)O)cc1)NC(=O)[C@H](CCC(=O)OCc1ccccc1)NC(=O)OCC1c2ccccc2-c2ccccc21)C(N)=O`, the IC50 in experiment [1] is 2.5 µM; in experiment [2], 3.1 µM.

`CC(C)C[C@H](CC(=O)[C@H](Cc1ccc(CC(=O)O)cc1)NC(=O)[C@H](CCC(=O)OCc1ccccc1)NC(=O)OCC1c2ccccc2-c2ccccc21)C(N)=O`: the IC50 in experiment [1] is 2.4 µM; in experiment [2] it was 4.6 µM.

Regarding `Cc1cn(CC(=O)N[C@@H](CCC(=O)OCc2ccccc2)C(=O)N[C@@H](Cc2ccc(OCC(=O)O)cc2)C(=O)C[C@@H](CC(C)C)C(N)=O)c(=O)[nH]c1=O`, the IC50 in experiment [1] and in experiment [2] was over 100 µM in each case.

For the compound `CC(C)C[C@H](CC(=O)[C@H](Cc1ccc(OCC(=O)O)cc1)NC(=O)[C@H](CCC(=O)OCc1ccccc1)NC(=O)CCCc1c[nH]c2ccccc12)C(N)=O`, the IC50 in experiment [1] and in experiment [2] was over 100 µM each time.

As to `CC(C)C[C@H](CC(=O)[C@H](Cc1ccc(OCC(=O)O)cc1)NC(=O)[C@H](CCC(=O)OCc1ccccc1)NC(=O)CCc1cccc2ccccc12)C(N)=O`, the IC50 in experiment [1] is 18 µM; in experiment [2] it was 12 µM.

Consider `COc1ccc(Cn2nnc(CC(=O)N[C@@H](CCC(=O)OCc3ccccc3)C(=O)N[C@@H](Cc3ccc(OCC(=O)O)cc3)C(=O)C[C@@H](CC(C)C)C(N)=O)n2)cc1`, for which the IC50 in experiment [1] and in experiment [2] was over 100 µM in each case.

Take `CC(C)C[C@H](CC(=O)[C@H](Cc1ccc(OCC(=O)O)cc1)NC(=O)[C@H](CCC(=O)OCc1ccccc1)NC(=O)OCC1c2ccccc2-c2ccccc21)C(N)=O`: the IC50 came out at 1.8 µM in experiment [1] and 2.9 µM in experiment [2].

In the case of `CC(C)C[C@H](CC(=O)[C@H](Cc1ccc(OCC(=O)O)cc1)NC(=O)[C@H](CCC(=O)OCc1ccccc1)NC(=O)COc1cccc2ccccc12)C(N)=O`, the IC50 in experiment [1] was 20 µM; in experiment [2] it was 13 µM.

Regarding `CC(C)C[C@H](CC(=O)[C@H](Cc1ccc(OC(F)(F)C(=O)O)cc1)NC(=O)[C@H](CCC(=O)OCc1ccccc1)NC(=O)OCC1c2ccccc2-c2ccccc21)C(N)=O`, the IC50 stood at 1.9 µM in experiment [1] and 3.8 µM in experiment [2].

In the case of `CC(C)C[C@H](CC(=O)[C@H](Cc1ccc(OCC(=O)O)cc1)NC(=O)[C@H](CCC(=O)OCc1ccccc1)NC(=O)CCc1c2ccccc2cc2ccccc12)C(N)=O`, the IC50 came out at 12 µM in experiment [1] and 6.4 µM in experiment [2].

As to `CC(C)C[C@H](NC(=O)[C@H](Cc1ccc(OCC(=O)O)cc1)NC(=O)C(CNC(=O)OCc1ccccc1)CNC(=O)OCc1ccccc1)C(N)=O`, the IC50 in experiment [1] was 4 µM; in experiment [2], 2.8 µM.
